# Several values for one entry are separate records, joined by “and”; a condition that tells them apart may be missing. Equal entries are not always repeated.
# Experiments:
# Monkey = details: duration: 13 weeks, oral, flavoured beverage, F, Cynomolgus, Estrogenic effects on maturation of vaginal epithelial cells
# Rattus norvegicus [1] = tested on: Rattus norvegicus
# Oryctolagus sp. [2] = details: subchronic; inhalation; M/F; sedation
# Rattus norvegicus [3] = details: inhalation, M/F
# Rattus norvegicus [4] = details: for LD50 / LC50: acute
# Oryctolagus sp. [5] = test: LC60; higher = less toxic; details: acute; oral
# Oryctolagus sp. [6] = test: LD0; higher = less toxic; details: acute; dermal; semiocclusive; New Zealand
# Rattus norvegicus [7] = test: LD0; higher = less toxic; details: acute; dermal; semiocclusive; Sprague-Dawley
# Oryctolagus sp. [8] = details: for LD50: acute
# Mus musculus [9] = details: oral; for NOAEL: subchronic, duration: 13 weeks, gavage, B6C3F1
# Rattus norvegicus [10] = test: LC100; higher = less toxic; details: acute; inhalation; Wistar
# Mus musculus [11] = details: subchronic; duration: 13 weeks; oral; gavage; M/F; CD1; hepatic
# Mus musculus [12] = details: subchronic; oral; M/F; no effects
# Mus musculus [13] = details: subchronic; duration: 90 days; oral; gavage; M/F; CD-10 (ICR) BR; Whole Body Effects
# Rattus norvegicus [14] = details: subchronic; duration: 90 days; oral; drinking water; M/F; Fischer 344; renal
# Homo sapiens [15] = details: clinical; duration: 10 weeks; oral; drinking water; Cardiovascular system: Increased blood pressure
# Rattus norvegicus [16] = details: subchronic, oral, gavage, M/F, Fischer 344
# Mus musculus [17] = test: LD100; higher = less toxic; details: acute; oral; TAC:SWfBr
# Mus musculus [18] = test: LD0; higher = less toxic; details: acute; injection; Intraperitoneal
# Rattus norvegicus [19] = test: LC0; higher = less toxic; details: acute; inhalation
# Homo sapiens [20] = details: clinical; Induction of resistant enterobacteriaceae
# Homo sapiens [21] = details: clinical, duration: 14 days, oral, M, hematological
# Homo sapiens [22] = details: clinical; duration: 2 weeks; oral; Endocrine
# [23] = short-term, inhalation, New Zealand
# [24] = short-term, inhalation, M, Sprague-Dawley
# [25] = subchronic, duration: 13 weeks, oral, gavage, Fischer 344
# [26] = short-term, duration: 8 days, oral, gavage, Sprague-Dawley
structure (smiles),measurement,setting,value
CC1CCCC(O)CCCCCc2cc(O)cc(O)c2C(=O)O1 (centres undefined),NOEL,Monkey,0.05 mg/kg-day
same,NOEL,Monkey; subchronic,0.05 mg/kg-day
COCC(C)O (centres undefined) [1-Methoxy-2-propanol],NOEL,"Rattus norvegicus [1]; subchronic, duration: 35 days, oral, gavage, Kidney: Histopathology + Liver: Histopathology",947 mg/kg-day
same,LOAEL,Oryctolagus sp. [2],11100 mg/m3
same,NOAEL,Oryctolagus sp. [2],3680 mg/m3
same,LOAEL,"Rattus norvegicus [3]; subchronic, sedation",11100 mg/m3
same,NOAEL,"Rattus norvegicus [3]; subchronic, sedation",3680 mg/m3
"Cc1ccc(C)c(O)c1 [2,5-Dimethylphenol]",LD50,Rattus norvegicus [4]; oral,444 mg/kg
same,LC60,Oryctolagus sp. [5],938 mg/kg
"O=[N+]([O-])C(CO)(CO)CO [2-(Hydroxymethyl)-2-nitro-1,3-propanediol]",LC50,"Rattus norvegicus [4]; Inhalation, Sprague-Dawley",2.4 µg/mL
same,LC50,"Rattus norvegicus [4]; inhalation, particle, Sprague-Dawley",> 2.12 µg/mL
same,LD50,"Rattus norvegicus [4]; oral, gavage",≥ 990 mg/kg and ≤ 1000 mg/kg
same,LD0,Oryctolagus sp. [6],> 2000 mg/kg
same,LD0,Rattus norvegicus [7],> 5000 mg/kg
CC(C)[N+](=O)[O-] [2-Nitropropane],LD50,Oryctolagus sp. [8]; dermal,> 200 mg/kg
same,LD50,"Oryctolagus sp. [8]; dermal, New Zealand",> 2000 mg/kg
same,LD50,"Oryctolagus sp. [8]; oral, gavage",≥ 500 mg/kg and ≤ 750 mg/kg
same,LOAEL,Oryctolagus sp. [8]; [23],754 mg/m3
same,NOAEL,Oryctolagus sp. [8]; [23],98.4 mg/m3
same,LD50,"Mus musculus [9]; acute, CD1",393 mg/kg and ≥ 346 mg/kg and ≤ 446 mg/kg
same,LC50,"Rattus norvegicus [4]; inhalation, Sprague-Dawley",2620 mg/m3 and 1460 mg/m3
same,LC50,"Rattus norvegicus [4]; inhalation, Wistar",≥ 12.1 µg/mL and ≤ 14.4 µg/mL
same,NOAEL,"Rattus norvegicus [4]; developmental, duration: 15 days, injection, Intraperitoneal, Sprague-Dawley",< 170 mg/kg-day
same,NOAEL,"Rattus norvegicus [4]; reproduction developmental, duration: 15 days, injection, Intraperitoneal, F, Sprague-Dawley",170 mg/kg-day
same,LOAEL,Rattus norvegicus [4]; [24],754 mg/m3
same,NOAEL,Rattus norvegicus [4]; [24],98.4 mg/m3
same,LOAEL,"Rattus norvegicus [1]; chronic, duration: 22 months, inhalation, intermittent, Liver: Lesions",78 mg/m3
same,LC100,Rattus norvegicus [10],53600 mg/m3
same,LOAEL,"Rattus norvegicus [3]; chronic, liver focal vacuolization and nodules",78 mg/m3
c1ccc2cc3ccccc3cc2c1 [Anthracene],NOAEL,Mus musculus [11],1000 mg/kg-day
same,NOEL,Mus musculus [12],1000 mg/kg-day
same,NOEL,Mus musculus [13],1000 mg/kg-day
[Ba] [Barium],NOAEL,Rattus norvegicus [14],65 mg/kg-day
same,NOEL,"Rattus norvegicus [1]; developmental, duration: 4 months, inhalation, intermittent, Fetus: Fetotoxicity",0.8 mg/m3
same,NOAEL,Homo sapiens [15],0.21 mg/kg-day
C[N+](C)(C)Cc1ccccc1.[Cl-] [Benzyltrimethylammonium chloride],NOAEL,Mus musculus [9],25 mg/kg-day
same,LD50,"Rattus norvegicus [4]; oral, gavage, Fischer 344",180 mg/kg
same,NOAEL,"Rattus norvegicus [4]; short-term, duration: 28 days, oral, Crj:CD",30 mg/kg-day
same,NOAEL,"Rattus norvegicus [4]; short-term, duration: 28 days, oral, F, Crj:CD",60 mg/kg-day
same,NOAEL,Rattus norvegicus [4]; [25],25 mg/kg-day
same,NOEL,Rattus norvegicus [16]; Deaths + Clinical Observation: Nasal and eye discharge Lacrimation Salivation Tremors + Functional Observational Battery: Lacrimation or …,< 12.5 mg/kg-day
same,LD100,Mus musculus [17],1600 mg/kg
CCCCC(CC)COP(=O)(O)OCC(CC)CCCC (centres undefined) [Bis(2-ethylhexyl) phosphate],LD50,Oryctolagus sp. [8]; dermal,1200 mg/kg
same,LD50,"Oryctolagus sp. [8]; dermal, occlusive, New Zealand",> 2000 mg/kg
same,LD50,"Rattus norvegicus [4]; injection, Intraperitoneal",≥ 50 mg/kg and ≤ 100 mg/kg
same,LD50,Rattus norvegicus [4]; oral,4740 mg/kg
same,LD50,"Rattus norvegicus [4]; oral, gavage, Wistar",1400 mg/kg
same,LD0,Mus musculus [18],63 mg/kg
O=C(O)CCl [Chloroacetic acid],NOAEL,Mus musculus [9],100 mg/kg-day
same,NOAEL,"Rattus norvegicus [4]; chronic, duration: 208 days, oral, diet, M, Wistar",25 mg/kg-day
same,NOAEL,Rattus norvegicus [4]; [25],30 mg/kg-day
same,NOEL,"Rattus norvegicus [16]; duration: 13 weeks, Deaths + Body Weight Changes: decrease + Blood Chemistry: Ch E decrease, Ca decrease, TP decrease + Absolute Organ Weight: Heart decrease, …",< 30 mg/kg-day
same,LC0,Rattus norvegicus [19],0.005 mg/L
CN(C)[C@@H]1C(=O)C(C(N)=O)=C(O)[C@@]2(O)C(=O)C3=C(O)c4c(O)ccc(Cl)c4[C@@](C)(O)[C@H]3C[C@@H]12 [Chlortetracycline],LOEL,Homo sapiens [20],20 mg/day
same,NOEL,Homo sapiens [20],2 mg/day
[Co] [Cobalt],LOAEL,Homo sapiens [21],1 mg/kg-day
same,NOAEL,Homo sapiens [21]; capsule,0.8 mg/kg-day
same,LOAEL,Homo sapiens [22],1 mg/kg-day
CC(C)C(C)(C)C(C)(C)C(C)(C)SSSSSC(C)(C)C(C)(C)C(C)(C)C(C)C [Di-tert-Dodecyl pentasulfide],NOAEL,"Rattus norvegicus [4]; developmental, duration: 6 days, oral, gavage, Sprague-Dawley",1000 mg/kg-day
same,NOAEL,"Rattus norvegicus [4]; reproduction developmental, duration: 6 days, oral, gavage, F, Sprague-Dawley",1000 mg/kg-day
same,LOAEL,Rattus norvegicus [4]; [26],2500 mg/kg-day
same,NOAEL,Rattus norvegicus [4]; [26],1250 mg/kg-day
same,NOAEL,"Rattus norvegicus [4]; short-term, duration: 28 days, oral, gavage, Sprague-Dawley",1000 mg/kg-day
same,LD0,Rattus norvegicus [7],≥ 2000 mg/kg

# Reference: EPA's ToxValDB 9.5
